These results are taken from patent US7563895B2, “Quinoxaline compounds” (Janssen Pharmaceutica, N.V., priority 2003, dated 2009).

In assay [1] the target is T1, CCK2 receptor (Homo sapiens, UniProt P32239).
T1 construct: Membranes were prepared from the HEKZFP cells after induction; endogenous in cells; host or cells: HEKZFP cells (T-REx-293 with tet-inducible ZFP-VP16 specific for the CCK2R gene), doxycycline-induced; membrane preparation
T1 sequence (P32239 1-447): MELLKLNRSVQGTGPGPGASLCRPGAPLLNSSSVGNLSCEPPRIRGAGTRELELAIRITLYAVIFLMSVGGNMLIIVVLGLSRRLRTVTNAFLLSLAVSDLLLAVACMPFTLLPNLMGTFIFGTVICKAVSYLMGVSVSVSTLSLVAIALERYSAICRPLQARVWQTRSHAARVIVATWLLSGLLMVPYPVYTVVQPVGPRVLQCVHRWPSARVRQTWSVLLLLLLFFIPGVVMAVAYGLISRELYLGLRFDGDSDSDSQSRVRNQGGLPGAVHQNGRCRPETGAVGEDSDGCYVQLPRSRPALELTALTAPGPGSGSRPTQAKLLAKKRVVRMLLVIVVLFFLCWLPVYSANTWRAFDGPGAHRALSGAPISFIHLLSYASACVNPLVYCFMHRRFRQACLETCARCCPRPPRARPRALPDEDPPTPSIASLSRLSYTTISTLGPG
The experiment in a line: CCK2 receptor radioligand binding assay ([125I]-BH-CCK-8S, HEKZFP cell membranes). The conditions noted are these: competition with [125I]-BH-CCK-8S, membranes of induced HEKZFP cells, 60 min at 21±3° C., Cheng-Prusoff. On the procedure: Zinc Finger Proteins (ZFP) specific for the CCK2R gene were identified by Sangamo Biosciences. The ZFP domain was fused with the herpes simplex virus VP16 activation domain, and the fusion protein was subsequently cloned into the pcDNA3 mammalian expression vector (Invitrogen, San Diego, Calif.). […] After 2 weeks of selection in culture medium containing […] Zeocin (Invitrogen), sixty drug-resistant stable clones were isolated and analyzed for ZFP expression as well as CCK2R induction upon addition of doxycycline to the culture medium.
HEKZFP cells were grown in DMEM supplemented with L-glutamine (2 mM), penicillin (50 units/mL) and streptomycin (50 μg/mL) and 10% FBS (v/v).
Membranes were prepared from the HEKZFP cells after induction. […] The thawed pellets were homogenized using a Polytron PT-10 (7×1 s). The homogenates were centrifuged for 5 min at 1500 rpm (600×g), and the resulting pellets were discarded. The supernatants were re-centrifuged in order to collect the receptor-membrane pellets (25 min 15,000 rpm; 39,800×g), which were re-suspended in buffer A.
The assay preparation was incubated for 1 h at 21±3° C., and then the assay was terminated by rapid filtration of the preparation under reduced pressure. The loaded filters were washed three times using undiluted PBS (100 μL), and then 100 μL of scintillation fluid was added to the filter plate. Bound radioactivity was determined using a Topcount (Packard BioScience, Meriden, Conn.) with a count time of 1 min. […] To validate the radioligand concentration and incubation time for the assay, saturation and kinetic binding studies were also conducted (see M. F. Morton, The Pharmacological Characterization of Cholecystokinin Receptors in the Human Gastrointestinal Tract. PhD Thesis, University of London, 2000). […] The assay was then terminated according to the procedure outlined above.
The pKi values were determined using the equation of Y.-C.
To circumvent problems associated with computer-assisted data analysis of compounds with low affinity, the data obtained in the current study were weighed according to a method described by Morton. In brief, 100% and 0% specific binding were defined independently using total binding and binding obtained in the presence of a high concentration of the reference antagonist, 2-NAP.

Assay [2] addresses T2, CCK2 receptor (Cavia porcellus, UniProt H0VZC5).
T2 construct: strips of muscle were dissected and suspended in isolated tissue organ baths; from tissue; host or cells: guinea-pig gastric corpeal muscle strips
T2 sequence (H0VZC5 1-426): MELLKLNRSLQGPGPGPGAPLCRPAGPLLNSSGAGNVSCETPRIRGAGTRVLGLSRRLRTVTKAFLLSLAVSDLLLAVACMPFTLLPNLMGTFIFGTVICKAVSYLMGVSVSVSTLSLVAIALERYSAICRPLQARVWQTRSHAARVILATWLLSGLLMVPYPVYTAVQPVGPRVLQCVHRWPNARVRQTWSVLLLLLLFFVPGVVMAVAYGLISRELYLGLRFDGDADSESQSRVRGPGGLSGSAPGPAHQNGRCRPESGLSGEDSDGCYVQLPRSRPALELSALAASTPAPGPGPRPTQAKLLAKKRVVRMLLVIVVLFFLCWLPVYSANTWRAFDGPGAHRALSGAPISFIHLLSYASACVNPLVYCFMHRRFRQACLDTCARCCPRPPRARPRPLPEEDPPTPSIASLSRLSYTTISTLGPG
The experiment in a line: Guinea-pig gastric corpeal muscle assay (pentagastrin-induced contraction of isolated muscle strips). The conditions noted are these: pentagastrin concentration-response curves. On the procedure:
Guinea-Pig Gastric Corpeal Muscle Assay
CCK2 receptor-mediated muscle contraction was measured in an isolated muscle-strip assay of guinea-pig gastric corpeal muscle according to the methods described by Roberts et al. (S. P. Roberts, E. A. Harper, G. F. Watt, V. P. Gerskowitch, R. A. Hull, N. P. Shankley, and J. W. Black, Br. J. Pharmacol., 1996, 118(7): 1779-1789). In brief, strips of muscle were dissected and suspended in isolated tissue organ baths for isotonic muscle contraction recording. The baths, containing Krebs-Henseleit solution, were maintained at 24° C. and gassed continuously with 95% O2 and 5% CO2. CCK1 receptors known to be present in this assay were blocked using a selective concentration of a suitable CCK1 receptor antagonist (e.g. 2-NAP). The effectiveness of the test compounds was assessed by measuring their effect on contractile concentration-response curves obtained using a well-characterized surrogate hormone gastrin (pentagastrin).

As a reminder, the Ki is the equilibrium dissociation constant of an inhibitor or competing ligand from its target. Read a high Ki as a looser hold on the target. As to `C[C@@H](NC(=O)c1ccc(Br)cc1NS(=O)(=O)c1cccc2nccnc12)c1ccc(F)cc1F` [Example 2, (R)-4-Bromo-N-[1-(2,4-difluoro-phenyl)-ethyl]-2-(quinoxaline-5-sulfonylamino)-benzamide], on CCK2 receptor [1], the Ki is 20 nM. Further, at CCK2 receptor [2], the “behaviour in the assay (mode of antagonism)” value is given as “competitive antagonist”. Further, the Kb on CCK2 receptor [2] (CCK1 receptors blocked, 24° C., read-out: pKB value (converted)) is 1.58 nM.
`O=C(N[C@H](CF)c1ccc(F)cc1F)c1ccc(Cl)cc1NS(=O)(=O)c1cccc2nccnc12` [Example 78, (S)-4-Chloro-N-[1-(2,4-difluoro-phenyl)-2-fluoro-ethyl]-2-(quinoxaline-5-sulfonylamino)-benzamide] had a Ki on CCK2 receptor [1] of 39.8 nM.
Still for that read-out and setting: then `O=C(c1ccc(Cl)cc1NS(=O)(=O)c1cccc2nccnc12)N1CCCCC1` [Example 79, Quinoxaline-5-sulfonic acid [5-chloro-2-(piperidine-1-carbonyl)-phenyl]-amide], with 251 nM; and `O=C(c1ccc(C(F)(F)F)cc1NS(=O)(=O)c1cccc2nccnc12)N1CCOCC1` [Example 92, Quinoxaline-5-sulfonic acid [2-(morpholine-4-carbonyl)-5-trifluoromethyl-phenyl]-amide], with 79.4 nM; and `O=C(c1ccc(I)cc1NS(=O)(=O)c1cccc2nccnc12)N1CCOc2cc(F)cc(F)c2C1` [Example 94, Quinoxaline-5-sulfonic acid [2-(6,8-difluoro-2,3-dihydro-5H-benzo[f][1,4]oxazepine-4-carbonyl)-5-iodo-phenyl]-amide], with 398 nM.
